# Measured values reported in US20170252298A1, “Performance-Enhancing Nasal Irrigation” (Backed-by-Science, Inc., priority 2014, published 2017).
# Test system: nasal cilia
# Assay: nasal ciliary beat frequency (CBF), whole field analysis over time
# Format: cell-based
# Design: Mean CBF (WFA): unit: Hz
# Method: The ATP concentration inside the cell is typically 1-10 millimolar (mM). We started with an ATP concentration of 1 mg/ml based on literature data and from testing done by Dr. James Palmer at University of Pennsylvania on ATP concentration for increasing nasal ciliary beat frequency. […] 1 mg/ml from the below charts=1 mg/ml=1 gram per liter=1/507 g/mol=2 mM. Most intracellular ATP concentrations in animals fall within the range of 0.5-10 mM. [table]
# [1] = Plate 2, elapsed 0:08:10, ATP 1 mg/ml
# [2] = Plate 2, elapsed 0:08:20, ATP 1 mg/ml
# [3] = Plate 2, elapsed 0:08:30, ATP 1 mg/ml
# [4] = Plate 2, elapsed 0:08:40, ATP 1 mg/ml
# [5] = Plate 2, elapsed 0:08:50, ATP 1 mg/ml
# [6] = Plate 2, elapsed 0:09:00, ATP 1 mg/ml
# [7] = Plate 2, elapsed 0:09:10, ATP 1 mg/ml
# [8] = Plate 2, elapsed 0:09:20, ATP 1 mg/ml
# [9] = Plate 2, elapsed 0:09:30, ATP 1 mg/ml
# [10] = Plate 2, elapsed 0:09:40, ATP 1 mg/ml
# [11] = Plate 2, elapsed 0:09:50, ATP 1 mg/ml
# [12] = Plate 2, elapsed 0:10:00, ATP 1 mg/ml
# [13] = Plate 2, elapsed 0:10:10, ATP 1 mg/ml
# [14] = Plate 2, elapsed 0:10:20, ATP 1 mg/ml
# [15] = Plate 2, elapsed 0:10:30, ATP 1 mg/ml
# [16] = Plate 2, elapsed 0:10:40, ATP 1 mg/ml
# [17] = Plate 2, elapsed 0:10:50, ATP 1 mg/ml
# [18] = Plate 2, elapsed 0:11:00, ATP 1 mg/ml
# [19] = Plate 2, elapsed 0:11:10, ATP 1 mg/ml
# [20] = Plate 2, elapsed 0:15:10, ATP 1 mg/ml
# [21] = Plate 2, elapsed 0:15:20, ATP 1 mg/ml
# [22] = Plate 2, elapsed 0:15:30, ATP 1 mg/ml
# [23] = Plate 2, elapsed 0:15:40, ATP 1 mg/ml
# [24] = Plate 2, elapsed 0:15:50, ATP 1 mg/ml
# [25] = Plate 2, elapsed 0:16:00, ATP 1 mg/ml
# [26] = Plate 2, elapsed 0:16:10, ATP 1 mg/ml
# [27] = Plate 2, elapsed 0:16:20, ATP 1 mg/ml
# [28] = Plate 2, elapsed 0:16:30, ATP 1 mg/ml
# [29] = Plate 2, elapsed 0:16:40, ATP 1 mg/ml
# [30] = Plate 2, elapsed 0:16:50, ATP 1 mg/ml
# [31] = Plate 2, elapsed 0:17:00, ATP 1 mg/ml
# [32] = Plate 2, elapsed 0:17:10, ATP 1 mg/ml
# [33] = Plate 2, elapsed 0:17:20, ATP 1 mg/ml
# [34] = Plate 2, elapsed 0:17:30, ATP 1 mg/ml
# [35] = Plate 2, elapsed 0:17:40, ATP 1 mg/ml
# [36] = Plate 2, elapsed 0:17:50, ATP 1 mg/ml
# [37] = Plate 2, elapsed 0:18:00, ATP 1 mg/ml
# [38] = Plate 2, elapsed 0:18:10, ATP 1 mg/ml
# [39] = Plate 2, elapsed 0:18:20, ATP 1 mg/ml
# [40] = Plate 2, elapsed 0:18:30, ATP 1 mg/ml
# [41] = Plate 2, elapsed 0:18:40, ATP 1 mg/ml
# [42] = Plate 2, elapsed 0:18:50, ATP 1 mg/ml
# [43] = Plate 2, elapsed 0:19:00, ATP 1 mg/ml
# [44] = Plate 2, elapsed 0:19:10, ATP 1 mg/ml
# [45] = Plate 2, elapsed 0:19:20, ATP 1 mg/ml
# [46] = Plate 2, elapsed 0:19:30, ATP 1 mg/ml
# [47] = Plate 2, elapsed 0:19:40, ATP 1 mg/ml
# [48] = Plate 2, elapsed 0:19:50, ATP 1 mg/ml
# [49] = Plate 2, elapsed 0:20:00, ATP 1 mg/ml
smiles,measurement,setting,value
"Nc1ncnc2c1ncn2[C@@H]1O[C@H](COP(=O)(O)OP(=O)(O)OP(=O)(O)O)[C@@H](O)[C@H]1O [ATP, adenosine triphosphate]",Active Area,[1],37.97%
same,Mean CBF (WFA),[1],8.3
same,Active Area,[2],38.66%
same,Mean CBF (WFA),[2],8.29
same,Active Area,[3],39%
same,Mean CBF (WFA),[3],8.27
same,Active Area,[4],36.32%
same,Mean CBF (WFA),[4],8.33
same,Active Area,[5],39.05%
same,Mean CBF (WFA),[5],8.36
same,Active Area,[6],37.12%
same,Mean CBF (WFA),[6],8.36
same,Active Area,[7],38.83%
same,Mean CBF (WFA),[7],8.31
same,Active Area,[8],38.39%
same,Mean CBF (WFA),[8],8.31
same,Active Area,[9],37.54%
same,Mean CBF (WFA),[9],8.37
same,Active Area,[10],36.11%
same,Mean CBF (WFA),[10],8.42
same,Active Area,[11],35.79%
same,Mean CBF (WFA),[11],8.4
same,Active Area,[12],36.58%
same,Mean CBF (WFA),[12],8.44
same,Active Area,[13],36.77%
same,Mean CBF (WFA),[13],8.49
same,Active Area,[14],37.58%
same,Mean CBF (WFA),[14],8.39
same,Active Area,[15],37.33%
same,Mean CBF (WFA),[15],8.41
same,Active Area,[16],37.82%
same,Mean CBF (WFA),[16],8.41
same,Active Area,[17],35.58%
same,Mean CBF (WFA),[17],8.37
same,Active Area,[18],38.06%
same,Mean CBF (WFA),[18],8.43
same,Active Area,[19],38.67%
same,Mean CBF (WFA),[19],8.42
same,Active Area,[20],41.31%
same,Mean CBF (WFA),[20],8.44
same,Active Area,[21],41.96%
same,Mean CBF (WFA),[21],8.48
same,Active Area,[22],39.32%
same,Mean CBF (WFA),[22],8.43
same,Active Area,[23],39.9%
same,Mean CBF (WFA),[23],8.44
same,Active Area,[24],40.84%
same,Mean CBF (WFA),[24],8.41
same,Active Area,[25],41.99%
same,Mean CBF (WFA),[25],8.36
same,Active Area,[26],42.7%
same,Mean CBF (WFA),[26],8.37
same,Active Area,[27],43.14%
same,Mean CBF (WFA),[27],8.39
same,Active Area,[28],42.52%
same,Mean CBF (WFA),[28],8.36
same,Active Area,[29],42.09%
same,Mean CBF (WFA),[29],8.38
same,Active Area,[30],42.85%
same,Mean CBF (WFA),[30],8.33
same,Active Area,[31],38.98%
same,Mean CBF (WFA),[31],8.32
same,Active Area,[32],41.85%
same,Mean CBF (WFA),[32],8.27
same,Active Area,[33],41.7%
same,Mean CBF (WFA),[33],8.24
same,Active Area,[34],42.78%
same,Mean CBF (WFA),[34],8.29
same,Active Area,[35],40.85%
same,Mean CBF (WFA),[35],8.32
same,Active Area,[36],42.27%
same,Mean CBF (WFA),[36],8.27
same,Active Area,[37],38.92%
same,Mean CBF (WFA),[37],8.27
same,Active Area,[38],40.18%
same,Mean CBF (WFA),[38],8.29
same,Active Area,[39],42.69%
same,Mean CBF (WFA),[39],8.27
same,Active Area,[40],42.91%
same,Mean CBF (WFA),[40],8.27
same,Active Area,[41],41.71%
same,Mean CBF (WFA),[41],8.24
same,Active Area,[42],42.85%
same,Mean CBF (WFA),[42],8.28
same,Active Area,[43],43.3%
same,Mean CBF (WFA),[43],8.24
same,Active Area,[44],42.12%
same,Mean CBF (WFA),[44],8.22
same,Active Area,[45],42.33%
same,Mean CBF (WFA),[45],8.25
same,Active Area,[46],43.77%
same,Mean CBF (WFA),[46],8.23
same,Active Area,[47],44.6%
same,Mean CBF (WFA),[47],8.25
same,Active Area,[48],43.27%
same,Mean CBF (WFA),[48],8.24
same,Active Area,[49],43.87%
same,Mean CBF (WFA),[49],8.26
same,ATP concentration sufficient to give an increase in ciliary beat frequency,"testing by Dr. James Palmer, University of Pennsylvania",1 mg/mL
